What was measured:
in vivo [1] = conditions: male, Sprague-Dawley, rat, po, 10 mg/kg
in vivo [2] = conditions: male, Sprague-Dawley, rat, po, 10 mg/kg; remark: listed apart in the source
in vivo [3] = conditions: male, Sprague-Dawley, rat, iv, 1 mg/kg
in vivo [4] = conditions: male, Sprague-Dawley, rat, po, 10 mg/kg; remark: listed apart in the source
in vivo [5] = conditions: male, Sprague-Dawley, rat, iv, 1 mg/kg; remark: listed apart in the source
in vivo [6] = conditions: male, Sprague-Dawley, rat, iv, 1 mg/kg; remark: listed apart in the source
in vivo [7] = conditions: male, Sprague-Dawley, rat, iv, 1 mg/kg; remark: listed apart in the source
in vivo [8] = conditions: male, Sprague-Dawley, rat, po, 10 mg/kg; remark: listed apart in the source

## O=C(Cc1ccccc1F)Nc1cccc(Sc2ccc3c(/C=C/c4ccccn4)n[nH]c3c2)c1
In vivo [1]
  Tmax at 24 h: 1.67 h
In vivo [2]
  AUC(0-t) at 24 h: 1670 ng·h/mL
In vivo [3]
  Cmax at 24 h: 1470 ng/mL
In vivo [4]
  MRT last at 24 h: 2.73 h
In vivo [5]
  Tmax at 24 h: 1.8 min
In vivo [6]
  MRT last at 24 h: 1.62 h
In vivo [7]
  AUC(0-t) at 24 h: 1590 ng·h/mL
In vivo [8]
  Cmax at 24 h: 484 ng/mL
